pEC50: −log10 of the molar value. Where two headings read alike, the source gives them in different places. Where a SMILES comes first, the peptide text is derived from it. Where no end group is shown, it is not given here. [ ]: non-standard residue; d: D form. Aib = CC(C)(N)C(=O)O
Legend:
[1] = system: Mouse monocyte/macrophage cell line, RAW 264.7; experiment: Cholesterol efflux assay (3H-cholesterol, macrophage cell line); format: cell-based; conditions: RAW 264.7, 4 hrs incubation, 0.1% human serum albumin, ABCA1-mediated efflux
[2] = molecular target: human GLP-1 receptor (Homo sapiens, UniProt P43220); experiment: Functional GLP-1 receptor assay, in vitro potency (CRE luciferase; whole cells); format: cell-based; conditions: BHK cells expressing human GLP-1 receptor
Chain of human GLP-1 receptor (P43220 24-463): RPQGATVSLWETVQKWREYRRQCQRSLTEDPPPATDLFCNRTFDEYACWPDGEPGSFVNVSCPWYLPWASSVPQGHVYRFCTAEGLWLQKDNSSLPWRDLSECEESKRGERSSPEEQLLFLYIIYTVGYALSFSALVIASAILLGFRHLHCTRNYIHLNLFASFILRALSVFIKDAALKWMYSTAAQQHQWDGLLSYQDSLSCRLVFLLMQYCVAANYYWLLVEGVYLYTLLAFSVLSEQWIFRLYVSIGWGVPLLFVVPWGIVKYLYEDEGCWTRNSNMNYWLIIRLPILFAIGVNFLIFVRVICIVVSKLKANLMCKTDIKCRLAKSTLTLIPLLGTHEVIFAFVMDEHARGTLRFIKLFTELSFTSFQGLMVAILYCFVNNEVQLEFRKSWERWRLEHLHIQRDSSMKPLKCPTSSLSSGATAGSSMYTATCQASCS

[3] = 0% HSA, read-out: GLP1R CRE luc 0% HSA EC50 Mean Value
[4] = GLP1R CRE luc 1% HSA EC50 Mean Value, 1% HSA

Row | Molecule | pEC50 [2, 3] | pEC50 [2, 4] | 4 h Cholesterol Efflux Emax [1] [%]
1 | CC[C@H](C)[C@H](NC(=O)[C@H](Cc1ccccc1)NC(=O)[C@H](CCC(=O)O)NC(=O)[C@H](CCCNC(=N)N)NC(=O)[C@@H](NC(=O)[C@H](C)NC(=O)[C@H](CCC(=O)O)NC(=O)[C@H](CCC(=O)O)NC(=O)[C@H](CCC(=O)O)NC(=O)[C@H](CCSC)NC(=O)[C@H](CCC(N)=O)NC(=O)[C@H](CCCCN)NC(=O)[C@H](CO)NC(=O)[C@H](CC(C)C)NC(=O)[C@H](CC(=O)O)NC(=O)[C@H](CO)NC(=O)[C@@H](NC(=O)[C@H](Cc1ccccc1)NC(=O)[C@@H](NC(=O)CNC(=O)[C@H](CCC(=O)O)NC(=O)C(C)(C)NC(=O)[C@@H](N)Cc1c[nH]cn1)[C@@H](C)O)[C@@H](C)O)C(C)C)C(=O)N[C@@H](CCC(=O)O)C(=O)N[C@@H](Cc1c[nH]c2ccccc12)C(=O)N[C@@H](CC(C)C)C(=O)N[C@@H](CCCCN)C(=O)N[C@@H](CC(N)=O)C(=O)N[C@@H](CCCCN)C(=O)NC(C)(C)C(=O)N[C@@H](CC(C)C)C(=O)N[C@@H](CCC(=O)O)C(=O)N[C@@H](Cc1ccccc1)C(=O)N[C@@H](CC(C)C)C(=O)N[C@@H](C)C(=O)N[C@@H](CC(C)C)C(=O)N[C@@H](CC(C)C)C(N)=O [Compound 41, [Aib2,Glu21,Lys29,Aib30,Leu31,Glu32,Phe33,Leu34,Leu36,Leu371-Exendin-4-(1-37)-peptide amide] (H-H[Aib]EGTFTSDLSKQMEEEAVREFIEWLKNK[Aib]LEFLALL-NH2; N-terminus assumed) | – | – | 98
2 | CC[C@H](C)[C@H](NC(=O)[C@H](Cc1ccccc1)NC(=O)[C@H](CCC(=O)O)NC(=O)[C@H](CCCNC(=N)N)NC(=O)[C@@H](NC(=O)[C@H](C)NC(=O)[C@H](CCC(=O)O)NC(=O)CNC(=O)[C@H](CCC(=O)O)NC(=O)[C@H](CC(C)C)NC(=O)[C@H](Cc1ccc(O)cc1)NC(=O)[C@H](CO)NC(=O)[C@H](CO)NC(=O)[C@@H](NC(=O)[C@H](CC(=O)O)NC(=O)[C@H](CO)NC(=O)[C@@H](NC(=O)[C@H](Cc1ccccc1)NC(=O)[C@@H](NC(=O)CNC(=O)[C@H](CCC(=O)O)NC(=O)C(C)(C)NC(=O)[C@@H](N)Cc1c[nH]cn1)[C@@H](C)O)[C@@H](C)O)C(C)C)C(C)C)C(=O)N[C@@H](C)C(=O)N[C@@H](Cc1c[nH]c2ccccc12)C(=O)N[C@@H](CC(C)C)C(=O)N[C@H](C(=O)N[C@@H](CCC(=O)O)C(=O)N[C@@H](CCCNC(=N)N)C(=O)NC(C)(C)C(=O)N[C@@H](CCCCN)C(=O)N[C@@H](CCC(=O)O)C(=O)N[C@@H](Cc1ccccc1)C(=O)N[C@@H](CC(C)C)C(N)=O)C(C)C [Compound 19, [Aib8,Glu23,Val25,Arg26,Glu34,Arg35,Aib36,Lys37]-GLP-1-(7-37)-peptidyl-Glu-Phe-Leu amide] (H-H[Aib]EGTFTSDVSSYLEGEAVREFIAWLVER[Aib]KEFL-NH2) | – | – | 83
3 | CC[C@H](C)[C@H](NC(=O)[C@H](Cc1ccccc1)NC(=O)[C@H](CCC(=O)O)NC(=O)[C@H](CCCNC(=N)N)NC(=O)[C@@H](NC(=O)[C@H](C)NC(=O)[C@H](CCC(=O)O)NC(=O)CNC(=O)[C@H](CCC(=O)O)NC(=O)[C@H](CCSC)NC(=O)[C@H](CCC(N)=O)NC(=O)[C@H](CCCCN)NC(=O)[C@H](CO)NC(=O)[C@H](CC(C)C)NC(=O)[C@H](CC(=O)O)NC(=O)[C@H](CO)NC(=O)[C@@H](NC(=O)[C@H](Cc1ccccc1)NC(=O)[C@@H](NC(=O)CNC(=O)[C@H](CCC(=O)O)NC(=O)C(C)(C)NC(=O)[C@@H](N)Cc1c[nH]cn1)[C@@H](C)O)[C@@H](C)O)C(C)C)C(=O)N[C@@H](CCC(=O)O)C(=O)N[C@@H](Cc1c[nH]c2ccccc12)C(=O)N[C@@H](CC(C)C)C(=O)N[C@@H](CCCCN)C(=O)N[C@@H](CC(N)=O)C(=O)N[C@@H](CCCCN)C(=O)NC(C)(C)C(=O)N[C@@H](CC(C)C)C(=O)N[C@@H](CCC(=O)O)C(=O)N[C@@H](Cc1ccccc1)C(=O)N[C@@H](CC(C)C)C(=O)N[C@@H](CCC(=O)O)C(=O)N[C@@H](CC(C)C)C(=O)N[C@@H](CC(C)C)C(N)=O [Compound 2, [Aib2, Glv16,Glu21,Lys29,Aib30,Leu31,Glu32,Phe33,Leu34,Glu35,Leu36,Leu371-Exendin-4-(1-37)-peptide amide] (H-H[Aib]EGTFTSDLSKQMEGEAVREFIEWLKNK[Aib]LEFLELL-NH2; N-terminus assumed) | – | – | 83
4 | CC[C@H](C)[C@H](NC(=O)[C@H](Cc1ccccc1)NC(=O)[C@H](CCC(=O)O)NC(=O)[C@H](CCCCN)NC(=O)[C@H](C)NC(=O)[C@H](CCCCN)NC(=O)[C@H](CCCCN)NC(=O)[C@H](CCC(=O)O)NC(=O)[C@H](CCC(=O)O)NC(=O)[C@H](CC(C)C)NC(=O)[C@H](Cc1ccc(O)cc1)NC(=O)[C@H](CCCCN)NC(=O)[C@H](CO)NC(=O)[C@H](Cc1ccc(O)cc1)NC(=O)[C@H](CC(=O)O)NC(=O)[C@H](CO)NC(=O)[C@@H](NC(=O)[C@H](Cc1ccccc1)NC(=O)[C@@H](NC(=O)CNC(=O)[C@H](CCC(N)=O)NC(=O)[C@H](CO)NC(=O)[C@@H](N)Cc1c[nH]cn1)[C@@H](C)O)[C@@H](C)O)C(=O)N[C@@H](C)C(=O)N[C@@H](Cc1c[nH]c2ccccc12)C(=O)N[C@@H](CC(C)C)C(=O)N[C@@H](CC(C)C)C(=O)N[C@@H](CCC(=O)O)C(=O)N[C@@H](CCCCN)C(=O)NC(C)(C)C(=O)N[C@@H](CCCCN)C(=O)N[C@@H](CCC(=O)O)C(=O)N[C@@H](Cc1ccccc1)C(=O)N[C@@H](CC(C)C)C(N)=O [Compound 58] (H-HSQGTFTSDYSKYLEEKKAKEFIAWLLEK[Aib]KEFL-NH2) | 8.93 | 9.23 | –
5 | HAEGTFTNDMTNYLEGEAVKEFIAWLVEKGKEFL-NH2 [Compound 27, [Asn14,Met16,Thr17,Asn18,Glu23,Val25,Glu34,Lys35,Gly36,Lys37]-GLP-1-(7-37)-peptidyl-Glu-Phe-Leu amide] | – | 10.55 | –
6 | CC[C@H](C)[C@H](NC(=O)[C@H](Cc1ccccc1)NC(=O)[C@H](CCC(=O)O)NC(=O)[C@H](CCCCN)NC(=O)[C@@H](NC(=O)[C@H](C)NC(=O)[C@H](CCC(=O)O)NC(=O)CNC(=O)[C@H](CCC(=O)O)NC(=O)[C@H](Cc1ccc(O)cc1)NC(=O)[C@H](Cc1ccc(O)cc1)NC(=O)[C@H](CO)NC(=O)[C@H](CO)NC(=O)[C@@H](NC(=O)[C@H](CC(=O)O)NC(=O)[C@H](Cc1c[nH]cn1)NC(=O)[C@@H](NC(=O)[C@H](Cc1ccccc1)NC(=O)[C@@H](NC(=O)CNC(=O)[C@H](CCC(=O)O)NC(=O)[C@H](C)NC(=O)[C@@H](N)Cc1c[nH]cn1)[C@@H](C)O)[C@@H](C)O)C(C)C)C(C)C)C(=O)N[C@@H](C)C(=O)N[C@@H](Cc1c[nH]c2ccccc12)C(=O)N[C@@H](CC(C)C)C(=O)N[C@H](C(=O)N[C@@H](CCC(=O)O)C(=O)N[C@@H](CCCCN)C(=O)NC(C)(C)C(=O)N[C@@H](CCCCN)C(=O)N[C@@H](CCC(=O)O)C(=O)N[C@@H](Cc1ccccc1)C(=O)N[C@@H](CC(C)C)C(N)=O)C(C)C [Compound 15, [His4,Tyr20,Glu23,Val25,Glu34,Lys35,Aib36,Lys37]-GLP-1-(7-37)-peptidyl-Glu-Phe-Leu amide] (H-HAEGTFTHDVSSYYEGEAVKEFIAWLVEK[Aib]KEFL-NH2; N-terminus assumed) | – | 10.00 | –
7 | HAEGTFTSDVSSYLEGQAAKEFIAWLVEKVKEFL-NH2 [Compound 104, [Glu34,Lys35,Val36,Lys37]-GLP-1-(7-37)-peptidyl-Glu-Phe-Leu amide] | 9.94 | 10.64 | –
8 | CC(C)C[C@H](NC(=O)[C@H](Cc1ccccc1)NC(=O)[C@H](CCC(=O)O)NC(=O)[C@H](CCCCN)NC(=O)C(C)(C)NC(=O)[C@H](CCCCN)NC(=O)[C@H](CCC(=O)O)NC(=O)[C@H](CC(C)C)NC(=O)[C@H](CC(C)C)NC(=O)[C@H](Cc1c[nH]c2ccccc12)NC(=O)[C@H](CCC(N)=O)NC(=O)[C@@H](NC(=O)[C@H](Cc1ccccc1)NC(=O)[C@H](CCC(=O)O)NC(=O)[C@H](CCCNC(=N)N)NC(=O)[C@H](C)NC(=O)[C@H](C)NC(=O)[C@H](CCCCN)NC(=O)[C@H](CO)NC(=O)[C@H](CC(=O)O)NC(=O)[C@H](CC(C)C)NC(=O)[C@H](Cc1ccc(O)cc1)NC(=O)[C@H](CCCCN)NC(=O)[C@H](CO)NC(=O)[C@H](Cc1ccc(O)cc1)NC(=O)[C@H](CC(=O)O)NC(=O)[C@H](CO)NC(=O)[C@@H](NC(=O)[C@H](Cc1ccccc1)NC(=O)[C@@H](NC(=O)CNC(=O)[C@H](CCC(N)=O)NC(=O)[C@H](CO)NC(=O)[C@@H](N)Cc1c[nH]cn1)[C@@H](C)O)[C@@H](C)O)C(C)C)C(N)=O [Compound 59] (H-HSQGTFTSDYSKYLDSKAAREFVQWLLEK[Aib]KEFL-NH2) | 9.36 | 9.70 | –

Second part, led by results:

Row | pEC50 [2, 3] | pEC50 [2, 4] | Molecule | 4 h Cholesterol Efflux Emax [1] [%]
9 | 9.94 | 10.55 | HAEGTFTSDVSSYLEGQAAKEFIAWLVEKVKEFLE-NH2 [Compound 106, [Glu34,Lys35,Val36,Lys37]-GLP-1-(7-37)-peptidyl-Glu-Phe-Leu-Glu amide] | –
10 | 10.23 | 10.77 | HAEGTFTSDVSSYLEGQAAKEFIAWLVEKVGEFL-NH2 [Compound 108] | –
11 | 9.98 | – | HGEGTFTSDVSSYLEEEAVKEFIAWLVEKVKEF-NH2 [Compound 133, [Gly8,Glu22,Glu23,Val25,Glu34,Lys35,Val36,Lys37]-GLP-1-(7-37)-peptidyl-Glu-Phe amide] | –
12 | 10.43 | 10.85 | HAEGTFTSDVSSYLEGQAAKEFIAWLVEKVKEFY-NH2 [Compound 131, [Glu34,Lys35,Val36,Lys37]-GLP-1-(7-37)-peptidyl-Glu-Phe-Tyr amide] | –
13 | 10.70 | 11.00 | HAEGTFTSDVSSYLEEEAVKEFIAWLVEKVKEF-NH2 [Compound 132, [Glu22,Glu23,Val25,Glu34,Lys35,Val36,Lys37]-GLP-1-(7-37)-peptidyl-Glu-Phe amide] | –
